Some test systems named below: HOP-62 NSCLC; K-562 leukemia; OVCAR-3 ovarian; OVCAR-8 ovarian; SK-MEL-5 melanoma; HOP-92 NSCLC; KM12 colon; SR leukemia; DU-145 prostate; NCI/ADR-RES ovarian.
Holding throughout (experiment): NCI tumour cell line growth inhibition, 48 h

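Interpolation was linear, between the two tested concentrations surrounding the appropriate level; five concentrations were tested over 48 hours in 96-well plates. The concentration for 50% growth inhibition is given as GI50. TGI is the concentration that stops growth completely.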

Turning to `O/N=C1/CCCC/C1=C\c1ccc(Cl)c(Cl)c1`, the TGI is greater than 100 µM in the test on HOP-62 NSCLC; greater than 100 µM with K-562 leukemia; 49.7 µM in the test with OVCAR-3 ovarian; greater than 100 µM with OVCAR-8 ovarian; 35.6 µM in the test on SK-MEL-5 melanoma.
Turning to `C[C@@H]1CC[C@@]2(C)OC(c3ccccc3)[C@H](CO)N2C1=O` (some centres not stated), the TGI with HOP-62 NSCLC, in the test on HOP-92 NSCLC, in the test on K-562 leukemia, with KM12 colon, with OVCAR-3 ovarian and in the test on OVCAR-8 ovarian was greater than 100 µM each time. The TGI in the test on SK-MEL-5 melanoma and in the test on SR leukemia was greater than 100 µM in each case.
With `O=S1Nc2cccc(C(F)(F)F)c2S1` (configuration not stated), the TGI is greater than 100 µM with HOP-62 NSCLC; 73.2 µM in the test on HOP-92 NSCLC; greater than 100 µM in the test with K-562 leukemia; 59.9 µM in the test on KM12 colon; greater than 100 µM with OVCAR-3 ovarian; greater than 100 µM with OVCAR-8 ovarian. Besides, the TGI in the test on SK-MEL-5 melanoma and in the test on SR leukemia was greater than 100 µM each time.
On to `COc1ccc(-c2cnc(-c3ccc(OC)cc3)n2-c2cc(OC)c(OC)c(OC)c2)cc1`, for which the GI50 in the test with DU-145 prostate is 30.7 µM; in the test with HOP-62 NSCLC it was 21.4 µM; with HOP-92 NSCLC, 19.7 µM; in the test with KM12 colon, 34.9 µM; with NCI/ADR-RES ovarian, 30.3 µM; in the test on OVCAR-3 ovarian, 24.7 µM. Besides, the GI50 with OVCAR-8 ovarian was 19.7 µM; with SK-MEL-5 melanoma, 22.7 µM. The TGI is 78.2 µM in the test with DU-145 prostate; 44.9 µM in the test with HOP-62 NSCLC; 52.1 µM in the test on HOP-92 NSCLC; greater than 100 µM in the test with KM12 colon; greater than 100 µM with NCI/ADR-RES ovarian; 65 µM in the test on OVCAR-3 ovarian. For the same compound, the TGI came to 50.7 µM in the test on OVCAR-8 ovarian and 67.4 µM in the test with SK-MEL-5 melanoma.
On to `CCNCC(=O)Nc1ccc2c(c1)C(=O)c1ccc(NC(=O)CNCC)cc1C2=O`, for which the TGI with DU-145 prostate is 11.7 µM; in the test with HOP-62 NSCLC, 20 µM; in the test with HOP-92 NSCLC it was 12.5 µM; in the test on K-562 leukemia it was 4.91 µM; with KM12 colon, greater than 100 µM; with NCI/ADR-RES ovarian it was 28.3 µM. Also, the TGI in the test on OVCAR-3 ovarian amounted to 8.74 µM; in the test on OVCAR-8 ovarian, 15.1 µM; in the test on SK-MEL-5 melanoma, 59.3 µM.
As for `Cc1nc2ccccc2c(=O)n1/N=C(\N=Nc1ccccc1)c1ccccc1Cl`, the TGI with HOP-62 NSCLC is greater than 100 µM; with HOP-92 NSCLC, 64.2 µM; in the test with K-562 leukemia, greater than 100 µM; in the test with KM12 colon it was greater than 100 µM; in the test with OVCAR-3 ovarian, greater than 100 µM; in the test with OVCAR-8 ovarian, greater than 100 µM. This compound returned a TGI in the test on SK-MEL-5 melanoma greater than 100 µM.
As to `CCOC(=O)C1CC(=O)C=C2CCCCC21` (configuration not stated), the TGI with HOP-62 NSCLC, with HOP-92 NSCLC, with K-562 leukemia, in the test on KM12 colon, with OVCAR-3 ovarian and in the test with OVCAR-8 ovarian was greater than 100 µM in each case. In the test with SK-MEL-5 melanoma, this compound came in with a TGI greater than 100 µM.
`CC[C@]12CN3CCc4c([nH]c5ccccc45)[C@@](C(=O)OC)(c4cc5c(cc4OC)N(C)[C@H]4[C@@](O)(C(=O)OC)[C@H](OC(C)=O)[C@]6(CC)C=CCN7CC[C@]54[C@@H]76)CC(C3)[C@H]1O2` (some centres not stated): the GI50 in the test on DU-145 prostate is 0.121 µM; with HOP-62 NSCLC it was 0.121 µM; with HOP-92 NSCLC it was 1.29 µM; in the test on K-562 leukemia, 0.0499 µM; with KM12 colon, 0.105 µM; in the test with NCI/ADR-RES ovarian, 11.6 µM. Also, the GI50 in the test with OVCAR-3 ovarian is 0.0445 µM; with OVCAR-8 ovarian, 0.273 µM; with SK-MEL-5 melanoma it was 0.0888 µM. Also, the TGI with HOP-62 NSCLC was 26.9 µM; in the test with HOP-92 NSCLC, greater than 100 µM; in the test with K-562 leukemia, greater than 50 µM; in the test on NCI/ADR-RES ovarian, greater than 100 µM; in the test on OVCAR-8 ovarian it was greater than 100 µM; in the test on SK-MEL-5 melanoma it was 0.887 µM.
As to `N#Cc1c(N)nc2c(c1-c1ccc(Cl)cc1)COc1ccc(F)cc1-2`, the GI50 in the test with DU-145 prostate was 29.9 µM; with HOP-62 NSCLC it was 25.1 µM; in the test with HOP-92 NSCLC, 31.6 µM; with K-562 leukemia it was 15.5 µM; with KM12 colon it was 29.4 µM; in the test on NCI/ADR-RES ovarian it was 22.9 µM. Also, the GI50 in the test on OVCAR-3 ovarian is 23.2 µM; in the test with OVCAR-8 ovarian it was 32.5 µM; in the test with SK-MEL-5 melanoma it was 20.6 µM. Also, the TGI in the test on DU-145 prostate was greater than 100 µM; in the test on HOP-62 NSCLC, 75.2 µM; with HOP-92 NSCLC it was greater than 100 µM; in the test on K-562 leukemia, 34.1 µM; with KM12 colon, 80 µM; in the test with NCI/ADR-RES ovarian, 54.6 µM. Further, the TGI is 50.2 µM with OVCAR-3 ovarian, greater than 100 µM in the test with OVCAR-8 ovarian and 37.6 µM with SK-MEL-5 melanoma.
On to `CC1OC(n2cc(F)c(=O)[nH]c2=O)CCC1=O` (configuration not stated), for which the TGI with HOP-62 NSCLC, with HOP-92 NSCLC, in the test with K-562 leukemia, in the test with KM12 colon, with OVCAR-8 ovarian and with SK-MEL-5 melanoma was greater than 100 µM throughout. The compound also returned a TGI in the test on SR leukemia greater than 100 µM.
With `C[C@]12Cc3conc3C(O)=C1CC[C@@H]1C2CC[C@@]2(C)C1CC[C@@H]2O` (some centres not stated), the TGI is greater than 100 µM in the test with HOP-62 NSCLC; 63.6 µM with HOP-92 NSCLC; greater than 100 µM in the test on K-562 leukemia; 70.7 µM in the test on KM12 colon; 52.5 µM in the test on OVCAR-3 ovarian; 88.5 µM in the test with OVCAR-8 ovarian. The same compound displayed a TGI in the test with SK-MEL-5 melanoma of 29.9 µM.
With `COc1ccc(O)c(/C=N\Nc2ccccc2)c1`, the TGI in the test on DU-145 prostate, in the test on HOP-62 NSCLC, in the test with HOP-92 NSCLC, in the test with K-562 leukemia, with NCI/ADR-RES ovarian and with OVCAR-8 ovarian was greater than 100 µM each time. Also, the TGI in the test on SK-MEL-5 melanoma is greater than 100 µM.
On to `COc1cc2c3c(n(CCCN=[N+]=[N-])c(=O)c2cc1OC)-c1ccccc1C3=O`, for which the GI50 with DU-145 prostate was 28 µM; with HOP-62 NSCLC, 3.53 µM; in the test on HOP-92 NSCLC it was 7 µM; in the test on K-562 leukemia it was 3.48 µM; with KM12 colon, greater than 100 µM; with NCI/ADR-RES ovarian it was 4.59 µM. Also, the GI50 in the test with OVCAR-3 ovarian is 4.58 µM; in the test with OVCAR-8 ovarian it was 5.68 µM; in the test with SK-MEL-5 melanoma, 3.17 µM. The TGI with DU-145 prostate is greater than 100 µM; with HOP-62 NSCLC, 43.1 µM; in the test with HOP-92 NSCLC, 68.9 µM; in the test with K-562 leukemia it was greater than 100 µM; in the test with KM12 colon, greater than 100 µM; with NCI/ADR-RES ovarian it was 75.2 µM. Besides, the TGI with OVCAR-3 ovarian was 24.5 µM; with OVCAR-8 ovarian, greater than 100 µM; in the test with SK-MEL-5 melanoma, 9.25 µM.
`CCOC(=O)NC(=O)c1cn(CCSCCOC(=O)NCCCCCCNC(=O)OCCSCCn2cc(C(=O)NC(=O)OCC)c(=O)n(C)c2=O)c(=O)n(C)c1=O`: the TGI with HOP-62 NSCLC is greater than 100 µM; in the test on HOP-92 NSCLC, greater than 100 µM; in the test with OVCAR-3 ovarian, greater than 100 µM; with OVCAR-8 ovarian, 65.9 µM; in the test on SR leukemia, greater than 100 µM.

For the origin of these results see PubChem BioAssay (NCI).
